Experimental findings from a melting point compilation (Tetko et al.) are described below.

By melting point is commonly meant the temperature of the solid-liquid transition.

Compound `O=C(O)c1sc(C2CC2)nc1C(F)(F)F` had a melting point of 146 to 148 °C.

`CCNC(=O)Nc1cccc([N+](=O)[O-])c1` showed a melting point of 141 to 143 °C.

With `O=C(O)C1Cc2cc(F)ccc2O1` (stereo not given), the melting point lay within 129 to 131 °C.

Turning to `O=Cc1cccc(NC(=O)c2ccc(Cl)cc2)c1`, the melting point lay in the range of 129 to 131 °C.

`COC(=O)c1sc(N2CCOCC2)nc1N` came in with a melting point of 156 to 158 °C.

In the case of `O=C(O)c1cc(S(=O)(=O)N2CCC2)ccc1Cl`, the melting point is 172 to 174 °C.

Regarding `CC(=O)c1nc2ccccc2n1C(F)F`, the melting point fell in the range of 65 to 67 °C.

Compound `COc1ccc(S(N)(=O)=O)cc1Br` registered a melting point of 139 to 141 °C.

In turn, `CC(C)(C#N)Nc1ccccc1` yielded a melting point of 89 to 91 °C.

In the case of `Cc1ccc(C(=O)N(C)C)cc1N`, the melting point was in the range of 97 to 99 °C.

The compound `O=C(O)C1(c2cccc(C(F)(F)F)c2)CCOCC1` registered a melting point of 147 to 149 °C.

`O=C(O)C1CCCCC1c1nc2cc(Cl)ccc2[nH]1` (stereo not given) returned a melting point of 199 to 201 °C.

`O=c1ccc2c(Cl)ccc(Cl)c2[nH]1` registered a melting point of 194 to 196 °C.

Take `C=CCn1c(S)nnc1-c1ccoc1C`: the melting point lay within 293 to 295 °C.

`O=C(O)CSc1nnc(-c2ccco2)o1` yielded a melting point of 152 to 155 °C.

`Cn1ncc2c(N3CCNCC3)ncnc21` gave a melting point of 64 to 66 °C.

Regarding `O=[N+]([O-])c1ccccc1CS(=O)(=O)Cl`, the melting point is 64 to 66 °C.

For the compound `COC(=O)c1cc(C(=O)OC)cc(S(=O)(=O)Cl)c1`, the melting point lay in the range of 105 to 107 °C.

In turn, `Cc1cc(O)c(C=O)cc1C` yielded a melting point of 64 to 66 °C.

`CC(C)C(NC(=O)c1ccc(Cl)cc1)C(=O)O` (stereo not given) had a melting point of 197 to 199 °C.

Compound `N#CCC(=O)N1CCN(C(c2ccccc2)c2ccccc2)CC1` gave a melting point of 110 to 112 °C.

Take `CC(C)Cn1cc(C(=O)O)c2ccccc21`: the melting point fell in the range of 151 to 153 °C.

`CC(C)(C)c1ccc(OCCCC(=O)O)cc1`: the melting point lay in the range of 53 to 55 °C.

`CCOC(=O)CNC(=O)CC` came in with a melting point of 50 to 52 °C.

Compound `O=C(O)c1ccc(-c2nnco2)cc1` had a melting point of 261 to 263 °C.

Regarding `Cc1ncc(NC(=O)OC(C)(C)C)s1`, the melting point fell in the range of 147 to 149 °C.

On to `Cc1nc2ccc(Cl)cc2cc1C(=O)O`, for which the melting point is 218 to 220 °C.

As for `O=C1CC2(CCOC2)CN1` (stereo not given), the melting point lay within 63 to 65 °C.

`O=C(O)c1sccc1S(=O)(=O)NCc1cccs1`: the melting point lay in the range of 138 to 140 °C.

With `O=S(=O)(Cl)c1c(Br)cc(F)cc1Br`, the melting point is 82 to 84 °C.

For the compound `CCn1nc(C)c(C(=O)O)c1Cl`, the melting point fell in the range of 129 to 131 °C.

The compound `O=c1[nH]c(-c2cccc(C(F)(F)F)c2)cs1` registered a melting point of 182 to 184 °C.

Regarding `Cc1cn(-c2ccccc2)nc1N`, the melting point was 119 to 121 °C.

Turning to `CC(=O)NC1(C(=O)O)CCC(C)CC1` (stereo not given), the melting point was 211 to 213 °C.

The compound `Cn1c(Cl)nc(Cl)c1C=O` gave a melting point of 61 to 63 °C.

`CCc1ccc(N2CCC(=O)CC2)cc1`: the melting point lay within 43 to 45 °C.

`O=C(O)c1c[nH]nc1-c1ccccc1F` yielded a melting point of 288 to 290 °C.

Compound `CC(=O)Nc1ccccc1C=O` showed a melting point of 67 to 69 °C.

In turn, `CC(CC(N)=S)n1cc(Cl)cn1` (stereo not given) yielded a melting point of 128 to 130 °C.

With `CC(=O)c1c[nH]c(C(=O)O)c1`, the melting point is 201 to 203 °C.

The compound `Cc1cc(CC#N)no1` registered a melting point of 36 to 38 °C.

Consider `O=C(NC1CC1)n1ccnc1`, for which the melting point lay within 89 to 91 °C.

On to `CS(=O)(=O)c1ccc(F)cc1[N+](=O)[O-]`, for which the melting point lay within 148 to 150 °C.

As for `Cc1ccc(N2C(=O)CSC2=S)cc1`, the melting point was 168 to 170 °C.

In the case of `O=C(O)c1n[nH]c2c1CCCC2`, the melting point lay in the range of 249 to 251 °C.

The compound `Cc1nccc(N)c1Cl` yielded a melting point of 110 to 112 °C.

Take `Cc1ccnc(Oc2ccc(N)cc2)n1`: the melting point is 119 to 121 °C.

As to `CC(Oc1ccc(C(C)(C)C)cc1)C(=O)O` (stereo not given), the melting point fell in the range of 93 to 95 °C.

`COc1ccc(CC(N)=O)cc1F` registered a melting point of 173 to 175 °C.

Regarding `O=C(O)C(=Cc1ccc(Br)cc1)c1cccs1`, the melting point lay within 199 to 200 °C.

Consider `O=C(O)CCc1nc2cc(C(F)(F)F)ccc2n(Cc2ccccc2)c1=O`, for which the melting point is 171 to 173 °C.

The compound `C#CCOc1ccc(C(C)=O)cc1` gave a melting point of 72 to 74 °C.

The compound `c1ccc2c(c1)ncn2C1CCCNC1` (stereo not given) showed a melting point of 104 to 106 °C.

On to `CC(C)(C)OC(=O)N1CCC(O)(Cc2cccc(Cl)c2)C1` (stereo not given), for which the melting point lay within 109 to 111 °C.

The compound `Cc1cccc(-c2nc3cc(F)ccc3[nH]2)c1O` registered a melting point of 251 to 253 °C.

With `O=C(O)c1ncoc1-c1cccs1`, the melting point is 200 to 202 °C.

Compound `Nc1ccc2c(c1)C(=O)NC2` showed a melting point of 237 to 239 °C.

`O=C(O)C(Oc1ccccc1Br)c1ccccc1` (stereo not given): the melting point was 143 to 145 °C.

Compound `Nc1cc2c(cc1NC(=O)c1cccs1)OCCO2` gave a melting point of 178 to 180 °C.

`O=C(O)c1sc2cccc(Cl)c2c1Cl` gave a melting point of 273 to 275 °C.

`CCc1ccccc1NC(=O)CCl` displayed a melting point of 106 to 108 °C.

`NC(=O)c1cnc(Cl)c(Cl)c1` registered a melting point of 204 to 206 °C.

In turn, `Cc1cc(C)nc(SCc2ccc(C(=O)NN)cc2)n1` gave a melting point of 135 to 137 °C.

`CC(=O)N(c1nc(/C=C\C(=O)O)cs1)c1ccccc1F` showed a melting point of 195 to 197 °C.

In turn, `O=C(c1cc(Cl)c[nH]1)N1CCCNCC1` had a melting point of 116 to 118 °C.

In turn, `CC(C)(C)OC(=O)N1CC(O)(c2ccc(F)c(F)c2)C1` displayed a melting point of 69 to 71 °C.

In turn, `CC(C)(C)OC(=O)N1CCN(S(=O)(=O)Cl)CC1` registered a melting point of 148 to 150 °C.

`O=C(O)c1cc(Cl)c2c(c1)OCCCO2` displayed a melting point of 195 to 197 °C.

Consider `N#CCOc1ccc(CO)cc1`, for which the melting point fell in the range of 98 to 100 °C.

As for `O=C(O)c1cc(Cl)c2ccccc2c1O`, the melting point was 228 to 230 °C.

In the case of `COCc1nc(C)c(C(=O)O)s1`, the melting point is 159 to 161 °C.

`COC(=O)CNS(=O)(=O)c1ccc(N)cc1` had a melting point of 78 to 80 °C.

The compound `Cc1cc(C)c2c(-c3ccccc3)nc(S)n2n1` returned a melting point of 328 to 330 °C.

The compound `Cc1cc(C)c(S(=O)(=O)Cl)cc1C(=O)O` registered a melting point of 189 to 191 °C.

For the compound `O=C(O)c1ccccc1NS(=O)(=O)c1cccc([N+](=O)[O-])c1`, the melting point lay within 185 to 187 °C.

Turning to `Nc1ncon1`, the melting point lay within 104 to 106 °C.

For `Cc1cccc(Cl)c1OCC(=O)O`, the melting point was in the range of 99 to 101 °C.

With `COc1ccc(C(=O)c2ccc(Cl)cc2)cc1C`, the melting point is 121 to 123 °C.

Regarding `Nc1cccc(N2C(=O)c3ccccc3C2=O)c1`, the melting point was 189 to 191 °C.

For the compound `CC(C)(O)CN1CCN(C(=O)OC(C)(C)C)CC1`, the melting point fell in the range of 33 to 35 °C.

`CC(=O)c1ccc(OCCCC(=O)O)cc1` registered a melting point of 135 to 139 °C.

As to `Cc1cc(C(=O)NC2CCCCC2)ccc1N`, the melting point lay in the range of 178 to 180 °C.

`Cc1sc2nc(-c3cccs3)nc(Cl)c2c1C`: the melting point is 130 to 137 °C.

`Cc1cccc(C(N)C(=O)O)c1` (stereo not given): the melting point lay in the range of 229 to 231 °C.

Turning to `O=C(O)c1cnn2c1NCCC2`, the melting point was 141 to 143 °C.

Compound `Clc1ccc2c(n1)CCC2` returned a melting point of 69 to 71 °C.

Take `O=C(CCl)Nc1ccc(F)c(F)c1`: the melting point was 106 to 108 °C.

Compound `CCN1CCN(C(=O)c2ccc(N)cc2)CC1` displayed a melting point of 125 to 127 °C.

Regarding `O=C(O)c1ccnc(SCC(F)(F)F)c1`, the melting point fell in the range of 104 to 106 °C.

With `Cc1nnc(SCCC(=O)O)[nH]1`, the melting point lay within 131 to 133 °C.

`O=c1cc(-c2ccccc2)c2ccccc2[nH]1` registered a melting point of 263 to 265 °C.

In turn, `COc1c(Cl)cc(Br)cc1S(N)(=O)=O` returned a melting point of 214 to 216 °C.

On to `CCN1CCN(c2ccc(C(C)=O)cc2F)CC1`, for which the melting point was 68 to 70 °C.

`COc1ccccc1CC(C)CC(=O)O` (stereo not given) displayed a melting point of 49 to 51 °C.

Compound `OCC1CCCN(c2cc(Cl)ncn2)C1` (stereo not given) showed a melting point of 111 to 113 °C.

Turning to `O=C(O)COc1ccc(Nc2ccccc2)cc1`, the melting point lay in the range of 138 to 142 °C.

With `CC(C#N)CSc1ccccc1N` (stereo not given), the melting point is 65 to 67 °C.

The compound `CC(=O)c1ccc(NC(=O)c2ccc(C#N)cc2)cc1` registered a melting point of 228 to 230 °C.

In turn, `O=C(O)Cc1csc(-c2cccc(F)c2)n1` returned a melting point of 124 to 126 °C.

Regarding `CC(O)C1CCNCC1` (stereo not given), the melting point was in the range of 68 to 70 °C.

Compound `COc1ccc2cc(C=CC#N)ccc2c1` had a melting point of 124 to 126 °C.

With `O=Cc1cccc(OC(F)(F)C(=O)O)c1`, the melting point lay within 64 to 66 °C.

Compound `Cc1ccc(S(=O)(=O)Oc2cccnc2[N+](=O)[O-])cc1` yielded a melting point of 83 to 85 °C.

As for `COc1ccc(N(C(C)=O)c2nc(C=O)cs2)cc1`, the melting point fell in the range of 180 to 183 °C.

The compound `COCCOc1nc(C(=O)O)cc2ccccc12` had a melting point of 145 to 147 °C.

For `NC(=O)NC(CC(=O)O)c1ccccc1` (stereo not given), the melting point is 194 to 196 °C.

As to `Oc1ccc(OCc2cccnc2)cc1`, the melting point fell in the range of 157 to 159 °C.

Consider `Cn1c(=O)[nH]c(=O)c2cc(C(=O)O)cnc21`, for which the melting point lay in the range of 316 to 318 °C.

In turn, `Cc1ccc(-c2nc3c(s2)C(=O)CCC3)cc1` gave a melting point of 128 to 130 °C.

As for `Cc1ccc(C(=O)O)cc1NC(=O)c1ccccc1F`, the melting point was in the range of 268 to 270 °C.

In the case of `Cn1c(C2CC2)nc2cc(N)ccc21`, the melting point was 99 to 101 °C.

As to `O=C(CCl)c1ccc2c(c1)-c1cc(C(=O)CCl)ccc1C2`, the melting point lay in the range of 200 to 202 °C.

As for `COc1cccc(CC(C(=O)O)n2nnnc2C)c1` (stereo not given), the melting point fell in the range of 125 to 127 °C.

In the case of `N#Cc1cc(C(F)(F)F)ccc1N`, the melting point was in the range of 72 to 74 °C.

`CC(C)(C)OC(=O)Nc1ccc(CC(=O)N2CCNCC2)cc1` yielded a melting point of 169 to 171 °C.

Consider `Cc1oc(-c2cnn(C)c2)nc1C(=O)O`, for which the melting point was in the range of 249 to 251 °C.

With `Nc1c(C(=O)O)cc([N+](=O)[O-])cc1[N+](=O)[O-]`, the melting point is 266 to 268 °C.

On to `COc1ccc(C(CNC(=O)CCl)c2c[nH]c3ccccc23)cc1` (stereo not given), for which the melting point lay in the range of 157 to 159 °C.

As for `COc1ccc(S(=O)(=O)N(C)C)cc1N`, the melting point was 192 to 194 °C.

Regarding `O=C(O)CCOc1ccccc1F`, the melting point lay in the range of 112 to 114 °C.
